Converted amounts (≈) assume the structure as drawn.
Assays:
[1] = system: Staphylococcus sp.; assay: In vitro antibacterial evaluation: minimum inhibitory concentration (MIC), broth dilution method; format: cell-based; settings: 18 hours at 35° C.
In short: (§1)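 NCCLS M7-A2 broth dilution with Mueller-Hinton II, testing 64-0.06 μg/mL antibiotic against 5×10^5 CFU/mL inocula. Test strains include recent methicillin-, penicillin- or vancomycin-resistant clinical isolates. MIC is the lowest concentration preventing growth.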

[2] = system: Enterococcus sp.; assay: as above; format: cell-based; settings: 18 hours at 35° C.
In short: as §1

[3] = system: Streptococcus sp.; assay: as above; format: cell-based; settings: 18 hours at 35° C.
In short: as §1

[4] = system: Staphylococcus aureus-SMITH (GC 4543); assay: Acute lethal infection in mice (ED50); format: in vivo; settings: female CD-1 mice, intraperitoneal challenge, intravenous dose 30 min. after infection, 7 day survival ratios
In short: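 Groups of five female CD-1 mice per dose got intravenous antibiotic in saline or 5% dextrose half an hour after intraperitoneal infection sufficient to kill controls within 24-48 hr. Seven-day survival data from three experiments were combined to derive ED50.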

[5] = Anatomic pathology (heart and kidney histopathology) in mice; format: in vivo, CD-1 mice; settings: 20 mg/kg intravenously daily for 9 days, microscopic histopathology on day 10
In short: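 Histopathology on H&E-stained, paraffin-embedded sections, subjectively scored (slight, mild, moderate, marked, severe) relative to untreated controls. Dosing: glycopeptide antibiotics 20 mg/kg intravenously once daily ×9 days in 20-day-old CD-1 mice, n=5 per group including vehicle.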

[6] = system: Escherichia coli; assay: In vitro antibacterial evaluation: minimum inhibitory concentration (MIC), broth dilution method; format: cell-based; settings: broth dilution, 18 hours at 35° C.
[7] = system: Escherichia coli; assay: as above; format: cell-based; settings: 18 hours at 35° C.
In short: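 Inoculum: 5×10^5 CFU/mL. Range: 64-0.06 μg/mL. Medium: Muller-Hinton II […]; NCCLS M7-A2 broth dilution. Endpoint: lowest concentration inhibiting growth. Strains include methicillin-, penicillin- and/or vancomycin-resistant clinical isolates.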

[8] = broth dilution, inoculum 5×10^5 CFU/mL

With `Cc1ccc(Oc2cccc(-c3nc4cc(CC5NC(=O)C(C(C)c6ccccc6)NC(=O)CNC(=O)C(CO)NC(=O)C(C(O)C6CNC(=N)N6C6OC(CO)C(O)C(O)C6O)NC(=O)C(C(O)C6CNC(=N)N6)NC5=O)ccc4o3)c2)cc1` (stereo not drawn) [Example 28] the “MIC Staphylococcus aureus-SMITH (GC 4543)” value ([1]; strain SMITH GC 4543, broth dilution) was 4 µg/mL (≈ 3.39 µM), the “MIC Enterococcus avium (GC 4558)” value ([2]; Enterococcus avium (GC 4558), broth dilution) was 4 µg/mL (≈ 3.39 µM) and the “MIC Enterococcus faecalis (ATCC 29212)” value ([2]; Enterococcus faecalis (ATCC 29212), broth dilution) was 8 µg/mL (≈ 6.79 µM). For the same molecule, the “MIC Enterococcus faecalis (GC 2242)” value ([2]; Enterococcus faecalis (GC 2242), broth dilution) was 4 µg/mL (≈ 3.39 µM), the “MIC Enterococcus faecalis (GC 2691)” value ([2]; Enterococcus faecalis (GC 2691), broth dilution) was 8 µg/mL (≈ 6.79 µM) and the “MIC Enterococcus faecalis (GC 3059)” value ([2]; Enterococcus faecalis (GC 3059), broth dilution) was 8 µg/mL (≈ 6.79 µM). The “MIC Enterococcus faecalis (GC 4552)” value ([2]; Enterococcus faecalis (GC 4552), broth dilution) was 8 µg/mL (≈ 6.79 µM), the “MIC Enterococcus faecalis (GC 4553)” value ([2]; Enterococcus faecalis (GC 4553), broth dilution) was 4 µg/mL (≈ 3.39 µM) and the “MIC Enterococcus faecalis (GC 4554)” value ([2]; Enterococcus faecalis (GC 4554), broth dilution) was 8 µg/mL (≈ 6.79 µM). For the same molecule, the “MIC Enterococcus faecalis (GC 6189)” value ([2]; Enterococcus faecalis (GC 6189), broth dilution) was 8 µg/mL (≈ 6.79 µM), the “MIC Enterococcus faecium (GC 2243)” value ([2]; Enterococcus faecium (GC 2243), broth dilution) was 8 µg/mL (≈ 6.79 µM) and the “MIC Enterococcus faecium (GC 4556)” value ([2]; Enterococcus faecium (GC 4556), broth dilution) was 8 µg/mL (≈ 6.79 µM). For the same molecule, the “MIC Enterococcus faecium (GC 4557)” value ([2]; Enterococcus faecium (GC 4557), broth dilution) was 4 µg/mL (≈ 3.39 µM), the “MIC Enterococcus avium (GC 4558)” value ([2]; broth dilution) was 4 µg/mL (≈ 3.39 µM) and the “MIC Enterococcus faecalis (ATCC 29212)” value ([2]; broth dilution) was 8 µg/mL (≈ 6.79 µM). For the same molecule, the “MIC Enterococcus faecalis (GC 2242)” value ([2]; broth dilution) was 4 µg/mL (≈ 3.39 µM), the “MIC Enterococcus faecalis (GC 2691)” value ([2]; broth dilution) was 8 µg/mL (≈ 6.79 µM) and the “MIC Enterococcus faecalis (GC 3059)” value ([2]; broth dilution) was 8 µg/mL (≈ 6.79 µM). For the same molecule, the “MIC Enterococcus faecalis (GC 4552)” value ([2]; broth dilution) was 8 µg/mL (≈ 6.79 µM), the “MIC Enterococcus faecalis (GC 4553)” value ([2]; broth dilution) was 4 µg/mL (≈ 3.39 µM) and the “MIC Enterococcus faecalis (GC 4554)” value ([2]; broth dilution) was 8 µg/mL (≈ 6.79 µM). The “MIC Enterococcus faecalis (GC 6189)” value ([2]; broth dilution) was 8 µg/mL (≈ 6.79 µM), the “MIC Enterococcus faecium (GC 2243)” value ([2]; broth dilution) was 8 µg/mL (≈ 6.79 µM) and the “MIC Enterococcus faecium (GC 4556)” value ([2]; broth dilution) was 8 µg/mL (≈ 6.79 µM). The “MIC Enterococcus faecium (GC 4557)” value ([2]; broth dilution) was 4 µg/mL (≈ 3.39 µM), the “MIC Streptococcus agalactiae (GC 4564)” value ([3]; Streptococcus agalactiae (GC 4564), broth dilution) was 4 µg/mL (≈ 3.39 µM) and the “MIC Streptococcus pneumoniae (ATCC 6301)” value ([3]; Streptococcus pneumoniae (ATCC 6301), broth dilution) was 4 µg/mL (≈ 3.39 µM). For the same molecule, the “MIC Streptococcus pneumoniae (GC 1894)” value ([3]; Streptococcus pneumoniae (GC 1894), broth dilution) was 4 µg/mL (≈ 3.39 µM), the “MIC Streptococcus pneumoniae (GC 4565)” value ([3]; Streptococcus pneumoniae (GC 4565), broth dilution) was 4 µg/mL (≈ 3.39 µM) and the “MIC Streptococcus pyogenes (GC 4563)” value ([3]; Streptococcus pyogenes (GC 4563), broth dilution) was 1 µg/mL (≈ 0.849 µM). For the same molecule, the “MIC Streptococcus agalactiae (GC 4564)” value ([3]; broth dilution) was 4 µg/mL (≈ 3.39 µM), the “MIC Streptococcus pneumoniae (ATCC 6301)” value ([3]; broth dilution) was 4 µg/mL (≈ 3.39 µM) and the “MIC Streptococcus pneumoniae (GC 1894)” value ([3]; broth dilution) was 4 µg/mL (≈ 3.39 µM). The “MIC Streptococcus pneumoniae (GC 4565)” value ([3]; broth dilution) was 4 µg/mL (≈ 3.39 µM), the “MIC Streptococcus pyogenes (GC 4563)” value ([3]; broth dilution) was 1 µg/mL (≈ 0.849 µM) and the median effective dose (ED50), Staphylococcus aureus-SMITH (GC 4543) [4] was 8 mg/kg. The “Anatomical Pathology (Day 10), Heart” value [5] was 0, the “Anatomical Pathology (Day 10), Kidney” value [5] was 0 and the “MIC Escherichia coli (ATCC 25922)” value [6] was 64 µg/mL (≈ 54.3 µM). The “MIC Escherichia coli (GC 4559)” value [6] was 64 µg/mL (≈ 54.3 µM) and the “MIC Escherichia coli (GC 4560)” value [6] was 8 µg/mL (≈ 6.79 µM).
For `COc1ccc2cc(COC3C(CO)OC(OC4C(CO)OC(Oc5ccc(CC6NC(=O)C(C(C)c7ccccc7)NC(=O)CNC(=O)C(CO)NC(=O)C(CC7CNC(=N)N7C7OC(CO)C(O)C(O)C7O)NC(=O)C(CC7CNC(=N)N7)NC6=O)cc5)C(O)C4O)C(O)C3O)ccc2c1` (stereo not drawn) [Example 245a, Cyclo[3-(2-iminoimidazolidin-4-yl)alanyl-3-(3-hexopyranosyl-2-iminoimidazolidin-4-yl)-alanylserylglycyl-β-methylphenylalanyl-O-[4-O-[4-O-[(6-methoxy-2-naphthyl)methyl]-hexopyranosyl]hexopyranosyl]tyrosyl]], the “MIC Escherichia coli (ATCC 25922)” value ([7]; Escherichia coli (ATCC 25922)) was 32 µg/mL (≈ 22.3 µM), the “MIC Escherichia coli (GC 4559)” value ([7]; Escherichia coli (GC 4559)) was 32 µg/mL (≈ 22.3 µM) and the “MIC Escherichia coli (GC 4560)” value ([7]; Escherichia coli (GC 4560)) was 2 µg/mL (≈ 1.4 µM). The “MIC Coagulase Negative Staphylococcus (GC 4547)” value ([1]; Coagulase Negative Staphylococcus (GC 4547)) was 2 µg/mL (≈ 1.4 µM), the “MIC Coagulase Negative Staphylococcus (GC 4548)” value ([1]; Coagulase Negative Staphylococcus (GC 4548)) was 1 µg/mL (≈ 0.698 µM) and the “MIC Coagulase Negative Staphylococcus (GC 4549)” value ([1]; Coagulase Negative Staphylococcus (GC 4549)) was 0.5 µg/mL (≈ 0.349 µM). For the same molecule, the “MIC Coagulase Negative Staphylococcus (GC 4551)” value ([1]; Coagulase Negative Staphylococcus (GC 4551)) was 2 µg/mL (≈ 1.4 µM), the “MIC Coagulase Negative Staphylococcus (GC 6257)” value ([1]; Coagulase Negative Staphylococcus (GC 6257)) was 1 µg/mL (≈ 0.698 µM) and the “MIC Staphylococcus aureus (ATCC 29213)” value ([1]; Staphylococcus aureus (ATCC 29213)) was 2 µg/mL (≈ 1.4 µM). The “MIC Staphylococcus aureus (GC 1131)” value ([1]; Staphylococcus aureus (GC 1131)) was 4 µg/mL (≈ 2.79 µM), the “MIC Staphylococcus aureus (GC 3051)” value ([1]; Staphylococcus aureus (GC 3051)) was 2 µg/mL (≈ 1.4 µM) and the “MIC Staphylococcus aureus (GC 3053)” value ([1]; Staphylococcus aureus (GC 3053)) was 2 µg/mL (≈ 1.4 µM). For the same molecule, the “MIC Staphylococcus aureus (GC 4541)” value ([1]; Staphylococcus aureus (GC 4541)) was 2 µg/mL (≈ 1.4 µM), the “MIC Staphylococcus aureus (GC 4542)” value ([1]; Staphylococcus aureus (GC 4542)) was 2 µg/mL (≈ 1.4 µM) and the “MIC Staphylococcus aureus (GC 4544)” value ([1]; Staphylococcus aureus (GC 4544)) was 2 µg/mL (≈ 1.4 µM). For the same molecule, the “MIC Staphylococcus aureus (GC 4545)” value ([1]; Staphylococcus aureus (GC 4545)) was 2 µg/mL (≈ 1.4 µM), the “MIC Staphylococcus aureus-SMITH (GC 4543)” value ([1]; Staphylococcus aureus-SMITH (GC 4543)) was 2 µg/mL (≈ 1.4 µM) and the “MIC Staphylococcus haemolyticus (GC 4546)” value ([1]; Staphylococcus haemolyticus (GC 4546)) was 1 µg/mL (≈ 0.698 µM). For the same molecule, the “MIC Enterococcus avium (GC 4558)” value ([2]; Enterococcus avium (GC 4558)) was 4 µg/mL (≈ 2.79 µM), the “MIC Enterococcus faecalis (ATCC 29212)” value ([2]; Enterococcus faecalis (ATCC 29212)) was 8 µg/mL (≈ 5.58 µM) and the “MIC Enterococcus faecalis (GC 2242)” value ([2]; Enterococcus faecalis (GC 2242)) was 4 µg/mL (≈ 2.79 µM). For the same molecule, the “MIC Enterococcus faecalis (GC 2691)” value ([2]; Enterococcus faecalis (GC 2691)) was 8 µg/mL (≈ 5.58 µM), the “MIC Enterococcus faecalis (GC 3059)” value ([2]; Enterococcus faecalis (GC 3059)) was 4 µg/mL (≈ 2.79 µM) and the “MIC Enterococcus faecalis (GC 4552)” value ([2]; Enterococcus faecalis (GC 4552)) was 8 µg/mL (≈ 5.58 µM). The “MIC Enterococcus faecalis (GC 4553)” value ([2]; Enterococcus faecalis (GC 4553)) was 4 µg/mL (≈ 2.79 µM), the “MIC Enterococcus faecalis (GC 4554)” value ([2]; Enterococcus faecalis (GC 4554)) was 8 µg/mL (≈ 5.58 µM) and the “MIC Enterococcus faecalis (GC 6189)” value ([2]; Enterococcus faecalis (GC 6189)) was 8 µg/mL (≈ 5.58 µM). The “MIC Enterococcus faecium (GC 2243)” value ([2]; Enterococcus faecium (GC 2243)) was 4 µg/mL (≈ 2.79 µM), the “MIC Enterococcus faecium (GC 4556)” value ([2]; Enterococcus faecium (GC 4556)) was 4 µg/mL (≈ 2.79 µM) and the “MIC Enterococcus faecium (GC 4557)” value ([2]; Enterococcus faecium (GC 4557)) was 2 µg/mL (≈ 1.4 µM). For the same molecule, the “MIC Enterococcus faecalis (GC 2242)” value [2, 8] was 4 µg/mL (≈ 2.79 µM), the “MIC Enterococcus faecalis (GC 2691)” value [2, 8] was 8 µg/mL (≈ 5.58 µM) and the “MIC Enterococcus faecalis (GC 3059)” value [2, 8] was 4 µg/mL (≈ 2.79 µM). The “MIC Streptococcus agalactiae (GC 4564)” value ([3]; Streptococcus agalactiae (GC 4564)) was 1 µg/mL (≈ 0.698 µM), the “MIC Streptococcus pneumoniae (ATCC 6301)” value ([3]; Streptococcus pneumoniae (ATCC 6301)) was 0.5 µg/mL (≈ 0.349 µM) and the “MIC Streptococcus pneumoniae (GC 1894)” value ([3]; Streptococcus pneumoniae (GC 1894)) was less than 0.12 µg/mL. For the same molecule, the “MIC Streptococcus pneumoniae (GC 4565)” value ([3]; Streptococcus pneumoniae (GC 4565)) was 1 µg/mL (≈ 0.698 µM), the “MIC Streptococcus pyogenes (GC 4563)” value ([3]; Streptococcus pyogenes (GC 4563)) was 1 µg/mL (≈ 0.698 µM) and the “MIC Streptococcus agalactiae (GC 4564)” value [3, 8] was 1 µg/mL (≈ 0.698 µM). For the same molecule, the “MIC Streptococcus pneumoniae (ATCC 6301)” value [3, 8] was 0.5 µg/mL (≈ 0.349 µM), the “MIC Streptococcus pneumoniae (GC 1894)” value [3, 8] was less than 0.12 µg/mL and the “MIC Streptococcus pneumoniae (GC 4565)” value [3, 8] was 1 µg/mL (≈ 0.698 µM). For the same molecule, the “MIC Streptococcus pyogenes (GC 4563)” value [3, 8] was 1 µg/mL (≈ 0.698 µM), the median effective dose (ED50), Staphylococcus aureus-SMITH (GC 4543) [4] was 1 mg/kg and the “Anatomical Pathology (Day 10), Heart” value [5] was “+”. The “Anatomical Pathology (Day 10), Kidney” value [5] was “+++”.
